Measurements reported in ChEMBL document CHEMBL1208686, “Synthesis and antileishmanial activity of piperoyl-amino acid conjugates” (Eur J Med Chem, 2010).

Assays:
Leishmania donovani [1] = experiment: Antileishmanial activity against Leishmania donovani promastigotes after 48 hrs by MTT assay; format: functional, organism-based
PBMC [2] = experiment: Cytotoxicity against human PBMC at 2 times IC50 concentration after 48 hrs by MTT assay; format: cell-based
PBMC [3] = experiment: Cytotoxicity against human PBMC at IC50 concentration after 48 hrs by MTT assay; format: cell-based
Leishmania donovani [4] = experiment: Antileishmanial activity against Leishmania donovani amastigotes after 48 hrs by MTT assay; format: functional, organism-based
Leishmania donovani [5] = experiment: Antileishmanial activity against Leishmania donovani infected in golden Syrian hamsters assessed as reduction of spleen weight at 250 mg/kg, ip administered 20 days after infection for 10 days relative to control; format: functional; set-up: scale not given: the % may be the effect or the level left; details: route intraperitoneal
Leishmania donovani [6] = experiment: Antileishmanial activity against Leishmania donovani infected in golden Syrian hamsters assessed as reduction of spleen weight at 250 mg/kg, ip administered 20 days after infection for 10 days (reference value: 503 +/- 34 mg); format: functional; details: route intraperitoneal
Leishmania donovani [7] = experiment: Antileishmanial activity against Leishmania donovani infected in golden Syrian hamsters assessed as reduction of spleen parasitic burden at 250 mg/kg, ip administered 20 days after infection for 10 days relative to control; format: functional; set-up: scale not given: the % may be the effect or the level left; details: route intraperitoneal
Leishmania donovani [8] = experiment: Antileishmanial activity against Leishmania donovani infected in golden Syrian hamsters assessed as reduction of spleen weight at 12.5 mg/kg, po administered 20 days after infection for 10 days relative to control; format: functional; set-up: scale not given: the % may be the effect or the level left
Leishmania donovani [9] = experiment: Antileishmanial activity against Leishmania donovani infected in golden Syrian hamsters assessed as reduction of spleen weight at 12.5 mg/kg, po administered 20 days after infection for 10 days (reference value: 503 +/- 34 mg); format: functional
Leishmania donovani [10] = experiment: Antileishmanial activity against Leishmania donovani infected in golden Syrian hamsters assessed as reduction of spleen parasitic burden at 12.5 mg/kg, po administered 20 days after infection for 10 days relative to control; format: functional; set-up: scale not given: the % may be the effect or the level left

## COC(=O)[C@@H](N)CCSC
Leishmania donovani [1]
  IC50: 1930 µM
PBMC [2]
  Activity: 7.3%
PBMC [3]
  Activity: 1.5%
Leishmania donovani [4]
  IC50: 1900 µM

## COC(=O)C(CCSC)NC(=O)/C=C/C=C/c1ccc2c(c1)OCO2 (stereo unspecified)
Leishmania donovani [1]
  IC50: 823 µM
PBMC [2]
  Activity: 7.5%
PBMC [3]
  Activity: 4%
Leishmania donovani [4]
  IC50: 168 µM

## COC(=O)C(Cc1ccc(O)cc1)NC(=O)CCCCc1ccc2c(c1)OCO2 (stereo unspecified)
Leishmania donovani [1]
  IC50: 536 µM
PBMC [2]
  Activity: 7.6%
PBMC [3]
  Activity: 5%
Leishmania donovani [4]
  IC50: 202 µM

## COC(=O)C(NC(=O)CCCCc1ccc2c(c1)OCO2)C(C)C (stereo unspecified)
Leishmania donovani [1]
  IC50: 722 µM
PBMC [2]
  Activity: 7.7%
PBMC [3]
  Activity: 4.5%
Leishmania donovani [4]
  IC50: 240 µM

## COC(=O)C(CCSC)NC(=O)CCCCc1ccc2c(c1)OCO2 (stereo unspecified)
Leishmania donovani [1]
  IC50: 607 µM
PBMC [2]
  Activity: 5%
PBMC [3]
  Activity: 3%
Leishmania donovani [4]
  IC50: 221 µM

## COC(=O)C(Cc1c[nH]c2ccccc12)NC(=O)CCCCc1ccc2c(c1)OCO2 (stereo unspecified)
Leishmania donovani [1]
  IC50: 473 µM
PBMC [2]
  Activity: 5%
PBMC [3]
  Activity: 2.5%
Leishmania donovani [4]
  IC50: 176 µM

## COC(=O)[C@@H](N)C(C)C
Leishmania donovani [1]
  IC50: 2350 µM
PBMC [2]
  Activity: 6%
PBMC [3]
  Activity: 4%
Leishmania donovani [4]
  IC50: 1760 µM

## COC(=O)C(Cc1ccccc1)NC(=O)/C=C/C=C/c1ccc2c(c1)OCO2 (stereo unspecified)
Leishmania donovani [5]
  Activity: 30%
Leishmania donovani [6]
  Activity: 353 mg
Leishmania donovani [1]
  IC50: 834 µM
Leishmania donovani [7]
  Activity: 35%
PBMC [2]
  Activity: 7%
PBMC [3]
  Activity: 4%
Leishmania donovani [4]
  IC50: 197 µM

## COC(=O)C(Cc1ccc(O)cc1)NC(=O)/C=C/C=C/c1ccc2c(c1)OCO2 (stereo unspecified)
Leishmania donovani [1]
  IC50: 791 µM
PBMC [2]
  Activity: 6%
PBMC [3]
  Activity: 3.5%
Leishmania donovani [4]
  IC50: 210 µM

## COC(=O)C(NC(=O)/C=C/C=C/c1ccc2c(c1)OCO2)C(C)C (stereo unspecified)
Leishmania donovani [6]
  Activity: 516 mg
Leishmania donovani [1]
  IC50: 875 µM
Leishmania donovani [7]
  Activity: 24%
PBMC [2]
  Activity: 3.8%
PBMC [3]
  Activity: 3%
Leishmania donovani [4]
  IC50: 75 µM

## COC(=O)C(Cc1c[nH]c2ccccc12)NC(=O)/C=C/C=C/c1ccc2c(c1)OCO2 (stereo unspecified)
Leishmania donovani [1]
  IC50: 855 µM
PBMC [2]
  Activity: 5.2%
PBMC [3]
  Activity: 3%
Leishmania donovani [4]
  IC50: 119 µM

## O=C(/C=C/C=C/c1ccc2c(c1)OCO2)NC(Cc1ccccc1)C(=O)O (stereo unspecified)
Leishmania donovani [1]
  IC50: 927 µM
PBMC [2]
  Activity: 8.5%
PBMC [3]
  Activity: 1.2%
Leishmania donovani [4]
  IC50: 256 µM

## O=C(/C=C/C=C/c1ccc2c(c1)OCO2)NC(Cc1ccc(O)cc1)C(=O)O (stereo unspecified)
Leishmania donovani [1]
  IC50: 761 µM
PBMC [2]
  Activity: 6%
PBMC [3]
  Activity: 4%
Leishmania donovani [4]
  IC50: 249 µM

## CC(C)C(NC(=O)/C=C/C=C/c1ccc2c(c1)OCO2)C(=O)O (stereo unspecified)
Leishmania donovani [1]
  IC50: 1030 µM
PBMC [2]
  Activity: 9%
PBMC [3]
  Activity: 5.5%
Leishmania donovani [4]
  IC50: 310 µM

## CSCCC(NC(=O)/C=C/C=C/c1ccc2c(c1)OCO2)C(=O)O (stereo unspecified)
Leishmania donovani [1]
  IC50: 1310 µM
PBMC [2]
  Activity: 7.7%
PBMC [3]
  Activity: 1.8%
Leishmania donovani [4]
  IC50: 237 µM

## O=C(/C=C/C=C/c1ccc2c(c1)OCO2)NC(Cc1c[nH]c2ccccc12)C(=O)O (stereo unspecified)
Leishmania donovani [1]
  IC50: 1020 µM
PBMC [2]
  Activity: 10%
PBMC [3]
  Activity: 3.6%
Leishmania donovani [4]
  IC50: 236 µM

## COC(=O)C(Cc1ccccc1)NC(=O)CCCCc1ccc2c(c1)OCO2 (stereo unspecified)
Leishmania donovani [1]
  IC50: 669 µM
PBMC [2]
  Activity: 7.2%
PBMC [3]
  Activity: 5.5%
Leishmania donovani [4]
  IC50: 212 µM

## CCCCCCCCCCCCCCCCOP(=O)([O-])OCC[N+](C)(C)C [MILTEFOSINE]
Leishmania donovani [8]
  Activity: 43%
Leishmania donovani [1]
  IC50: 33 µM
Leishmania donovani [9]
  Activity: 287 mg
PBMC [2]
  Activity: 35%
PBMC [3]
  Activity: 29%
Leishmania donovani [4]
  IC50: 18 µM
Leishmania donovani [10]
  Activity: 87%

## O=C(O)/C=C/C=C/c1ccc2c(c1)OCO2 [PIPERIC ACID]
Leishmania donovani [1]
  IC50: 1760 µM
PBMC [2]
  Activity: 8%
PBMC [3]
  Activity: 4.5%
Leishmania donovani [4]
  IC50: 395 µM

## O=C(/C=C/C=C/c1ccc2c(c1)OCO2)N1CCCCC1 [PIPERINE]
Leishmania donovani [1]
  IC50: 2560 µM
PBMC [2]
  Activity: 10%
PBMC [3]
  Activity: 7%
Leishmania donovani [4]
  IC50: 752 µM

## COC(=O)[C@@H](N)Cc1c[nH]c2ccccc12 [TRYPTOPHAN METHYL ESTER]
Leishmania donovani [1]
  IC50: 1370 µM
PBMC [2]
  Activity: 5.3%
PBMC [3]
  Activity: 1.8%
Leishmania donovani [4]
  IC50: 1420 µM

## COC(=O)[C@@H](N)Cc1ccc(O)cc1 [TYROSINE METHYL ESTER]
Leishmania donovani [1]
  IC50: 2090 µM
PBMC [2]
  Activity: 5%
PBMC [3]
  Activity: 0.3%
Leishmania donovani [4]
  IC50: 1400 µM
